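All cell lines were grown in 96-well plates and treated with compound for 48 hours. TGI: total growth inhibition.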

What all share (assay): DTP human tumour cell line panel, 48 h
In assay [1] the test system is 786-0 renal.
Assay [2] relates to COLO 205 colon.
The test system of assay [3] is HCT-116 colon.
For assay [4], the system named is HS 578T breast.
The test system of assay [5] is MDA-MB-231 breast.
In assay [6] the test system is MOLT-4 leukemia.
Assay [7] relates to RXF 393 renal.
In assay [8] the test system is SF-295 CNS.
Assay [9] has as its system SW-620 colon.
Assay [10] relates to UACC-62 melanoma.

Usually TGI stands for the concentration giving total growth inhibition. As to `CC(C)(CO)CNc1nc(N)nc(Cl)c1/C=N/O`, the TGI in [1], in [2], in [3], in [4], in assay [5] and in [6] was greater than 100 µM throughout. In addition, the TGI in [7], in assay [8], in [9] and in [10] was greater than 100 µM throughout.

Regarding `Clc1ccc(C=NC23CC4CC(CC(C4)C2)C3)c(Cl)c1`, the TGI in [1], in assay [2], in assay [3], in assay [4], in [5] and in assay [6] was greater than 10 µM throughout. The TGI in [7], in assay [8], in assay [9] and in assay [10] was greater than 10 µM throughout.

As for `O=[N+]([O-])c1cc2oc(CSc3ccccc3)nc2cc1Cl`, the TGI in [1] was greater than 100 µM; in [2], 44.9 µM; in assay [3] it was greater than 100 µM; in assay [4], greater than 100 µM; in [5], 76.9 µM; in assay [6], greater than 100 µM. For the same compound, the TGI is 93 µM in assay [7], 93.9 µM in [8], greater than 100 µM in [9] and greater than 100 µM in assay [10].

As for `CC1OC(O[C@H]2C3C=CO[C@@H](OC4OC(CO)C(O)C(O)C4O)C3[C@@]3(COC(=O)/C=C/c4ccccc4)O[C@@H]23)C(O)C(O)C1O` (stereo not given in full), the TGI in assay [1], in assay [2], in assay [3], in [4], in [5] and in [6] was greater than 100 µM throughout. The TGI in assay [7], in assay [8], in [9] and in assay [10] was greater than 100 µM each time.

In the case of `O=C(CN1C(=O)CC(c2ccccc2)(c2ccccc2)C1=O)N1CCN(CCO)CC1`, the TGI in assay [1], in assay [2], in [3], in assay [4], in assay [5] and in assay [6] was greater than 100 µM in each case. The TGI in assay [7], in assay [8], in assay [9] and in [10] was greater than 100 µM in each case.

`Clc1sc(Cl)c2c1[C@@H](Cl)C[C@@H]2Br`: the TGI in assay [1] is greater than 100 µM; in assay [2], greater than 100 µM; in assay [3], greater than 100 µM; in assay [4] it was greater than 100 µM; in assay [5], greater than 100 µM; in assay [6], 43.9 µM. Further, the TGI in [7], in assay [8], in assay [9] and in [10] was greater than 100 µM throughout.

For the compound `C=C(C)[C@H]1C2=CC(C(=O)OC)=C(C[C@H](C(=C)C)[C@@H](O)[C@@H](O)C3=C[C@H]1OC3=O)O2`, the TGI in assay [1], in [2], in [3], in [4], in [5] and in assay [6] was greater than 100 µM throughout. The TGI in assay [7], in assay [8], in assay [9] and in assay [10] was greater than 100 µM in each case.

Turning to `Cc1ccc2c(c1)c1ccc3c(c1n2C)C(=O)C=CC3=O`, the concentration for total growth inhibition (TGI) in assay [1] is 3.44 µM; in assay [2] it was 3.16 µM; in assay [3], 2.92 µM; in assay [4] it was 8.66 µM; in [5], 6.01 µM; in assay [6] it was 2.19 µM. The TGI in assay [7] was 3.46 µM; in [8] it was greater than 10 µM; in [9] it was 2.37 µM; in [10], 9.48 µM.

Take `N#Cc1sc2c(c1OC(=O)c1ccc(C(F)(F)F)cc1)c(=O)n(-c1ccccc1)c(=S)n2-c1ccccc1`: the TGI in [1] was greater than 100 µM; in assay [2], 46.4 µM; in [3], 74.6 µM; in [4] it was 91.7 µM; in assay [5], greater than 100 µM; in assay [6], 52.7 µM. Besides, the TGI was 61.7 µM in [7], 71.4 µM in [8], greater than 100 µM in assay [9] and 50.9 µM in [10].

On to `Cn1c2ccccc2c2c(=S)c3ccccc3ccc21`, for which the TGI in assay [1], in [2], in assay [3], in assay [4], in [5] and in assay [6] was greater than 100 µM in each case. In addition, the total growth inhibition concentration (TGI) in assay [7], in assay [8], in [9] and in [10] was greater than 100 µM in each case.

Consider `O=C(CCSC1=NCCCN1)c1ccc(F)cc1`, for which the TGI in [1] turned out to be 14.1 µM; in assay [2], 11.8 µM; in [3], 39.3 µM; in [4], 62.6 µM; in assay [5], 49.1 µM; in assay [6] it was 7.27 µM. Besides, the TGI was found to be 33 µM in [7], 97.3 µM in [8], 15.5 µM in [9] and 32.9 µM in [10].

As for `N#CC(c1ccccc1)N(CCOCCOCCN(C(=O)c1ccccc1)C(C#N)c1ccccc1)C(=O)c1ccccc1` (stereo not given), the TGI in assay [1], in assay [2], in assay [3], in assay [4], in [5] and in assay [6] was greater than 100 µM in each case. Further, the total growth inhibition concentration (TGI) in assay [7], in assay [8], in [9] and in [10] was greater than 100 µM each time.

For the compound `Cc1nc2ccccc2c(-n2cccn2)c1CCn1cccn1`, the TGI in assay [1], in [2], in assay [3], in assay [4], in assay [5] and in [6] was greater than 100 µM in each case. In addition, the TGI in assay [7], in assay [8], in assay [9] and in [10] was greater than 100 µM each time.
